Source: patent US11779014B2, “Adjuvants” (SYNGENTA PARTICIPATIONS AG, priority 2017, dated 2023)

Key:
[1] = De-gelling temperature of aqueous surfactant blends by low shear rheology (Bohlin Gemini rheometer, storage modulus vs temperature); assay type: physicochemical
Procedure: The temperatures at which blends of capped and uncapped surfactants de-gel were determined by standard low shear rheology with a Bohlin™ Gemini rheometer. The storage modulus (G′) at 1 Hz was determined at a strain of 0.001-0.002 in a standard C14 cup and bob geometry over a temperature range of 5-70° C., the exact range depending on the de-gelling point of the sample. Plots of storage modulus versus temperature were constructed and the de-gelling temperature was taken to be the point at which the modulus begins to fall rapidly from its high value in the gelled state (typically ca. 10^5 Pa) down to the final value in the de-gelled state (less than 10 Pa). Blends of surfactants were prepared at from 25 to 40% w/w total surfactant concentration in water. Samples were left in an oven at 55° C. for several days to ensure that the mixtures were homogeneous. Samples were placed in the C14 cup and the samples were de-gelled by raising the temperature in the rheometer, the bob was then inserted and the sample was then cooled at 1° C./min, whilst the storage modulus was regularly recorded during the cooling. Once the final temperature had been reached (i.e. when the sample had gelled), the temperature was then increased again and the modulus again recorded. The de-gelling temperature was determined from the increasing temperature cycle.
Degelling temperatures—the measurements relied on the same method as for ‘Example 1’ but just at 30% w/w total surfactant concentration.
De-gelling temperatures were measured using the same method as in Example 1.
(§1) This example provides de-gelling, cloud point and adjuvancy data for dodecyl 23 ethoxylate with n-hexyl cap and hexadecyl 20 ethoxylate with n-hexyl cap Cloud points were measured as described in example 1 for 1% aqueous solutions of the capped and uncapped surfactants both individually and as blends (see Table 30). Degelling temperatures were also measured as outlined in example 1 for 25, 30, 35 and 40% aqueous solutions of the capped and uncapped surfactants both individually and as blends (see Table 31).
(§2) This example provides de-gelling, cloud point and adjuvancy data for oleyl 20 ethoxylate with n-butyl, n-pentyl or benzyl ether caps end capped oleyl 20 ethoxylate. Cloud points were measured as described in example 1 for 1% aqueous solutions of the capped and uncapped surfactants both individually and as blends. Degelling temperatures were also measured as outlined in example 1 for 25, 30, 35 and 40% aqueous solutions o of the capped and uncapped surfactants both individually and as blends.

[2] = Cloud point measurement (absorbance at 500 nm as a function of temperature); assay type: physicochemical; conditions: 1% aqueous solutions
Procedure: Consistent with the standard method for measuring the cloud point of surfactants, the cloud point of each of the above blends was measured at a total concentration of 1% w/w in water using a Perkin Elmer spectrophotometer fitted with a PTP6 temperature controller. The absorbance of the solution at 500 nm wavelength was determined as a function of temperature. The cloud point was recorded as the onset of a rapid increase in absorbance as the solution began to cloud.
Cloud point—the measurements relied on the same method as for ‘Example 1’
Cloud points—were measured using the same method as in Example 1.
as §1, §2

Avena fatua (AVEFA) = test: Glasshouse adjuvancy test for pinoxaden on AVEFA; assay type: in vivo; conditions: pinoxaden 15 g ai/ha, total surfactant 0.2% w/v, 21 days
Procedure: The efficacy of 1:1 blends of oleyl 20EO with oleyl 20EO with either n-hexanoyl, n-octanoyl or 2-ethyl hexanoyl ester caps as adjuvants for the herbicide pinoxaden was tested in a glasshouse against two weed species, sown into standard soil in pots and cultivated under controlled conditions in a glasshouse (20/16° C. day/night; 16 hours light; 65% humidity). Pinoxaden was added to the spray tank as a standard EC (emulsifiable concentrate) formulation. The plants were sprayed with pinoxaden at rates of 7.5 or 15 grams of pesticide per hectare using a laboratory track sprayer which delivered the aqueous spray composition at a rate of 200 litres per hectare, using a flat fan nozzle (Teejet 11002VS) at 2 bar. The spray solutions also contained the oleyl 20EO alone or in the 1:1 blends with the capped surfactants. The adjuvants were added to the spray solution at a total surfactant rate of 0.2% w/v. All spray solutions also contained 10% w/w of iso-propanol. The weed species and their BBCH growth stage at spraying were Avena fatua (AVEFA; growth stage 13) and Setaria viridis (SETVI; growth stage 13). Each spray test was replicated three times. The test plants were then grown in a glasshouse under controlled conditions (20/16° C. day/night; 16 hours light; 65% humidity) and watered twice a day. The efficacy of the herbicide was assessed visually and expressed as a percentage of the leaf area killed. Samples were assessed at a time period of 21 days following application.
Dodecyl 23EO and hexadecyl 20EO were capped with an n-hexyl ether cap. The efficacy of 1:1 blends of these with their uncapped counterparts were tested as adjuvants for the herbicide pinoxaden was tested in a glasshouse against two weed species, sown into standard soil in pots and cultivated under controlled conditions in a glasshouse (20/16° C. day/night; 16 hours light; 65% humidity). Pinoxaden was added to the spray tank as a standard EC (emulsifiable concentrate) formulation. The plants were sprayed with pinoxaden at a.i. rates of 7.5 or 15 grams per hectare using a laboratory track sprayer which delivered the aqueous spray composition at a rate of 200 litres per hectare, using a flat fan nozzle (Teejet 11002VS) at 2 bar. The spray solutions tested included the capped and uncapped alone or in the 1:1 blends with the capped surfactants. The adjuvants were added to the spray solution at a total surfactant rate of 0.2% w/v. All spray solutions also contained 10% w/w of iso-propanol. The weed species and their BBCH growth stage at spraying was Avena fatua (AVEFA; growth stage 12). Each spray test was replicated three times. The test plants were then grown in a glasshouse under controlled conditions (20/16° C. day/night; 16 hours light; 65% humidity) and watered twice a day. The efficacy of the herbicide was assessed visually and expressed as a percentage of the leaf area killed. Samples were assessed at a time period of 21 days following application.
Oleyl 20EO was capped with -butyl, n-pentyl and n-benzyl caps. The efficacy of 1:1 blends of these with their uncapped counterparts were tested as adjuvants for the herbicide pinoxaden was tested in a glasshouse against two weed species, sown into standard soil in pots and cultivated under controlled conditions in a glasshouse (20/16° C. day/night; 16 hours light; 65% humidity). Pinoxaden was added to the spray tank as a standard EC (emulsifiable concentrate) formulation. The plants were sprayed with pinoxaden at a.i. rates of 7.5 or 15 grams per hectare using a laboratory track sprayer which delivered the aqueous spray composition at a rate of 200 litres per hectare, using a flat fan nozzle (Teejet 11002VS) at 2 bar. The spray solutions tested included the capped and uncapped alone or in the 1:1 blends with the capped surfactants. The adjuvants were added to the spray solution at a total surfactant rate of 0.2% w/v. All spray solutions also contained 10% w/w of iso-propanol.

[3] = total surfactant concentration 25% w/w, Table 31
[4] = total surfactant concentration 30% w/w, Table 31
[5] = total surfactant concentration 35% w/w, Table 31
[6] = total surfactant concentration 40% w/w, Table 31

Compound | De-gelling temperature [1, 3] | De-gelling temperature [1, 4] | De-gelling temperature [1, 5] | De-gelling temperature [1, 6] | Cloud point ([2]; Table 30) | Mean control (Avena fatua (AVEFA); Example 7, growth stage 12) | De-gelling temperature ([1]; total surfactant concentration 25% w/w, Table 35) | De-gelling temperature ([1]; total surfactant concentration 30% w/w, Table 35) | De-gelling temperature ([1]; total surfactant concentration 35% w/w, Table 35) | De-gelling temperature ([1]; total surfactant concentration 40% w/w, Table 35) | Cloud point ([2]; Table 34) | Mean control (Avena fatua (AVEFA); Example 9, growth stage 12)
CCCCCCCCCCCCCCCCOCCOCCOCCOCCOCCOCCOCCOCCOCCOCCOCCOCCOCCOCCOCCOCCOCCOCCOCCOCCO [Hexadecyl 20EO, hexadecyl 20 ethoxylate] | 23.2 °C | 48.7 °C | 66.1 °C | 74.1 °C | >90.0 °C | 90.3% | – | – | – | – | – | –
dodecyl 23 ethoxylate [Dodecyl 23EO] | 21.1 °C | 38.6 °C | 55.0 °C | 64.3 °C | >90.0 °C | 83.3% | – | – | – | – | – | –
Dodecyl 23EO n-hexyl ether | <5 °C | <5 °C | <5 °C | 7.4 °C | 67.2 °C | 86% | – | – | – | – | – | –
Oleyl 20EO n-pentyl ether | – | – | – | – | – | – | <5 °C | 27.3 °C | 34.0 °C | 36.1 °C | 55.9 °C | 87.7%
Hexadecyl 20EO n-hexyl ether | <5 °C | <5 °C | 5.7 °C | 19.6 °C | 55.9 °C | 93.3% | – | – | – | – | – | –
